Assay results as given in patent US11479551B2, “MTA-cooperative PRMT5 inhibitors” (Mirati Therapeutics, Inc., priority 2019, dated 2022).
Read-outs that look alike come from different tables or passages of the source.

Target: PRMT5/MEP50 complex (Homo sapiens (Human), UniProt O14744)
Assay: PRMT5:MEP50 FlashPlate Assay (histone H4 peptide substrate, plus and minus MTA)
Type: biochemical
Description: The PRMT5 inhibitory activity of compounds of the present invention was determined using either a PRMT5:MEP50 FlashPlate Assay (Reaction Biology Corporation) or a PRMT5:MEP50 HotSpot Assay (Reaction Biology Corporation).
1. PRMT5:MEP50 FlashPlate Assay

[1] = IC50 + 2 μM MTA (nM), in the presence of 2 μM MTA
[2] = in the absence of MTA, read-out: IC50
[3] = read-out: IC50 + 2 μM MTA, in the presence of 2 μM MTA

Sequence of PRMT5/MEP50 complex (O14744 2-637): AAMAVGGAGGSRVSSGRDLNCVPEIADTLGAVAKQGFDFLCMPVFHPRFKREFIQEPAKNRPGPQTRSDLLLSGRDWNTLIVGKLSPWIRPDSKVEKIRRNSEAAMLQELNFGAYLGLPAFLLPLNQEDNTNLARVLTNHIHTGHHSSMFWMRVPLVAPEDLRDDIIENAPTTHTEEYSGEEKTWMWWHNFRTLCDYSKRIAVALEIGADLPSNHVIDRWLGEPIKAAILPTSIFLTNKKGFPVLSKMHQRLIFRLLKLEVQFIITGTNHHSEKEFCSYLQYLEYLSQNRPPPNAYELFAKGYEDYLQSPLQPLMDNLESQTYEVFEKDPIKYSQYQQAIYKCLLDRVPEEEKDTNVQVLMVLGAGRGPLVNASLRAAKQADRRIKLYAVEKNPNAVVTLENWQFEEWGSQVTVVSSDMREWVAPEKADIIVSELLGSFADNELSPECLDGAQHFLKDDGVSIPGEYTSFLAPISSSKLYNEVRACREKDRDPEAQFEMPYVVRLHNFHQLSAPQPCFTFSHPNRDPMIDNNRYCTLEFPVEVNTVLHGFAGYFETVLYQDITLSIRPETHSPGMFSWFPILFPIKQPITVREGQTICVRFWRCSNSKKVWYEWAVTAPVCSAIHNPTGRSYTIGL
Sequence of PRMT5/MEP50 complex (Q9BQA1 2-342 partner): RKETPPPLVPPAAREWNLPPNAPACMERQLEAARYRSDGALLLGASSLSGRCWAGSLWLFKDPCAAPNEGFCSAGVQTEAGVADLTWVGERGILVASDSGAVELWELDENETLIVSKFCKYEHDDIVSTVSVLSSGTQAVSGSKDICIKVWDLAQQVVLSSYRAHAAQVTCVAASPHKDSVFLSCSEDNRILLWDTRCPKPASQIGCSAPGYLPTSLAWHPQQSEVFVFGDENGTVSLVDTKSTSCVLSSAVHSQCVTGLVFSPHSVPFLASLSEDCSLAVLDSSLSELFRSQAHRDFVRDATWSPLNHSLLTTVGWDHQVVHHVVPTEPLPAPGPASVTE

Row | IC50 [1] | IC50 [2] | IC50 [3] | SMILES
1 | 57000 nM | > 100000 nM |  | NCc1n[nH]c(=O)c2ccc(C3CCOC3)cc12 (racemic) [Example 5-2, (R,S)-4-(aminomethyl)-6-(THF-3-yl)phthalazin-1(2H)-one]
2 | 39000 nM | > 100000 nM |  | NCc1n[nH]c(=O)c2cc(-c3ccccn3)ccc12 [Example 1-4, 4-(aminomethyl)-7-(pyridin-2-yl)phthalazin-1(2H)-one]
3 | 1400 nM | 34800 nM |  | NCc1n[nH]c(=O)c2ccc(-c3cccnc3)cc12 [Example 1-5, 4-(aminomethyl)-6-(pyridin-3-yl)phthalazin-1(2H)-one]
4 | 10000 nM | > 100000 nM |  | Cn1cc(-c2ccc3c(CN)n[nH]c(=O)c3c2)cn1 [Example 1-8, 4-(aminomethyl)-7-(1-methyl-1H-pyrazol-4-yl)phthalazin-1(2H)-one]
5 | 3700 nM | 89600 nM |  | NCc1n[nH]c(=O)c2ccc(-c3cncs3)cc12 [Example 3-1, 4-(aminomethyl)-6-(thiazol-5-yl)phthalazin-1(2H)-one]
6 | 42000 nM | 10000 nM |  | NCc1n[nH]c(=O)c2ccc(-c3ccnnc3)cc12 [Example 3-2, 4-(aminomethyl)-6-(pyridazin-4-yl)phthalazin-1(2H)-one]
7 | 25000 nM | 10000 nM |  | CCc1ccc(-c2ccc3c(=O)[nH]nc(CN)c3c2)cn1 [Example 3-3, 4-(aminomethyl)-6-(6-ethylpyridin-3-yl)phthalazin-1(2H)-one]
8 | 1400 nM | 38300 nM |  | Cc1cc(-c2ccc3c(=O)[nH]nc(CN)c3c2)cnc1C [Example 3-4, 4-(aminomethyl)-6-(5,6-dimethylpyridin-3-yl)phthalazin-1(2H)-one]
9 | 7400 nM | 87900 nM |  | Cc1ccc(-c2ccc3c(=O)[nH]nc(CN)c3c2)cn1 [Example 3-5, 4-(aminomethyl)-6-(6-methylpyridin-3-yl)phthalazin-1(2H)-one]
10 | 5100 nM | 47100 nM |  | NCc1n[nH]c(=O)c2ccc(-c3cnc4ccccc4c3)cc12 [Example 3-6, 4-(aminomethyl)-6-(quinolin-3-yl)phthalazin-1(2H)-one]
11 | > 1e+06 nM | > 1e+06 nM |  | NCc1n[nH]c(=O)c2ccc(-c3ccc(C(F)(F)F)nc3)cc12 [Example 3-8, 4-(aminomethyl)-6-(6-(trifluoromethyl)pyridin-3-yl)phthalazin-1(2H)-one]
12 | 33 nM | 1230 nM |  | Cc1c(-c2ccc3c(=O)[nH]nc(CN)c3c2)cnn1C [Example 3-9, 4-(aminomethyl)-6-(1,5-dimethyl-1H-pyrazol-4-yl)phthalazin-1(2H)-one]
13 | 100 nM | 3910 nM |  | Cc1cncc(-c2ccc3c(=O)[nH]nc(CN)c3c2)c1 [Example 3-10, 4-(aminomethyl)-6-(5-methylpyridin-3-yl)phthalazin-1(2H)-one]
14 | 5000 nM | 131000 nM |  | Cc1ncc(-c2ccc3c(=O)[nH]nc(CN)c3c2)cn1 [Example 3-11, 4-(aminomethyl)-6-(2-methylpyrimidin-5-yl)phthalazin-1(2H)-one]
15 | 210000 nM | > 1e+06 nM |  | NCc1n[nH]c(=O)c2ccc(-c3cnc(C(F)(F)F)nc3)cc12 [Example 3-12, 4-(aminomethyl)-6-(2-(trifluoromethyl)pyrimidin-5-yl)phthalazin-1(2H)-one]
16 | 110 nM | 1420 nM |  | CCc1cncc(-c2ccc3c(=O)[nH]nc(CN)c3c2)c1 [Example 3-13, 4-(aminomethyl)-6-(5-ethylpyridin-3-yl)phthalazin-1(2H)-one]
17 | 17 nM | 413 nM |  | CC(C)c1cncc(-c2ccc3c(=O)[nH]nc(CN)c3c2)c1 [Example 3-14, 4-(aminomethyl)-6-(5-isopropylpyridin-3-yl)phthalazin-1(2H)-one]
18 | 650 nM | 18700 nM |  | CCn1cc(-c2ccc3c(=O)[nH]nc(CN)c3c2)cn1 [Example 3-15, 4-(aminomethyl)-6-(1-ethyl-1H-pyrazol-4-yl)phthalazin-1(2H)-one]
19 | 13 nM | 186 nM |  | NCc1n[nH]c(=O)c2ccc(-c3cnn4ccccc34)cc12 [Example 3-16, 4-(aminomethyl)-6-(pyrazolo[1,5-a]pyridin-3-yl)phthalazin-1(2H)-one]
20 | 770 nM | 15100 nM |  | CC(C)n1cc(-c2ccc3c(=O)[nH]nc(CN)c3c2)cn1 [Example 3-17, 4-(aminomethyl)-6-(1-isopropyl-1H-pyrazol-4-yl)phthalazin-1(2H)-one]
21 | 33000 nM | > 1e+06 nM |  | Cc1ncccc1-c1ccc2c(=O)[nH]nc(CN)c2c1 [Example 3-18, 4-(aminomethyl)-6-(2-methylpyridin-3-yl)phthalazin-1(2H)-one]
22 | 180 nM | 6360 nM |  | Cc1ccncc1-c1ccc2c(=O)[nH]nc(CN)c2c1 [Example 3-19, 4-(aminomethyl)-6-(4-methylpyridin-3-yl)phthalazin-1(2H)-one]

Row | IC50 [1] | IC50 [2] | IC50 [3] | SMILES
23 | 53000 nM |  |  | Cn1nc(C(F)(F)F)cc1-c1ccc2c(=O)[nH]nc(CN)c2c1 [Example 3-20, 4-(aminomethyl)-6-(1-methyl-3-(trifluoromethyl)-1H-pyrazol-5-yl)phthalazin-1(2H)-one]
24 | 1800 nM | 39400 nM |  | Cc1cc(-c2ccc3c(=O)[nH]nc(CN)c3c2)[nH]n1 [Example 3-21, 4-(aminomethyl)-6-(5-methyl-1H-pyrazol-3-yl)phthalazin-1(2H)-one]
25 | 35000 nM | > 100000 nM |  | Cc1nn(C)cc1-c1ccc2c(=O)[nH]nc(CN)c2c1 [Example 3-22, 4-(aminomethyl)-6-(1,3-dimethyl-1H-pyrazol-4-yl)phthalazin-1(2H)-one]
26 | 230 nM | 6430 nM |  | CCCn1cc(-c2ccc3c(=O)[nH]nc(CN)c3c2)cn1 [Example 3-23, 4-(aminomethyl)-6-(1-propyl-1H-pyrazol-4-yl)phthalazin-1(2H)-one]
27 | 20000 nM | > 100000 nM |  | Cc1nn(C)c(C)c1-c1ccc2c(=O)[nH]nc(CN)c2c1 [Example 3-24, 4-(aminomethyl)-6-(1,3,5-trimethyl-1H-pyrazol-4-yl)phthalazin-1(2H)-one]
28 | 71000 nM | > 100000 nM |  | Cn1cc(-c2ccc3c(=O)[nH]nc(CN)c3c2)c(C(F)(F)F)n1 [Example 3-25, 4-(aminomethyl)-6-(1-methyl-3-(trifluoromethyl)-1H-pyrazol-4-yl)phthalazin-1(2H)-one]
29 | 1600 nM | 20600 nM |  | CC(C)CCn1cc(-c2ccc3c(=O)[nH]nc(CN)c3c2)cn1 [Example 3-26, 4-(aminomethyl)-6-(1-isopentyl-1H-pyrazol-4-yl)phthalazin-1(2H)-one]
30 | 4200 nM | 59000 nM |  | CC(C)Cn1cc(-c2ccc3c(=O)[nH]nc(CN)c3c2)cn1 [Example 3-27, 4-(aminomethyl)-6-(1-isobutyl-1H-pyrazol-4-yl)phthalazin-1(2H)-one]
31 | > 100000 nM | > 100000 nM |  | NCc1n[nH]c(=O)c2ccc(-c3cnco3)cc12 [Example 3-28, 4-(aminomethyl)-6-(oxazol-5-yl)phthalazin-1(2H)-one]
32 | 10000 nM |  |  | Cn1cc(-c2ccc3c(=O)[nH]nc(CN)c3c2)c2cccnc21 [Example 3-29, 4-(aminomethyl)-6-(1-methyl-1H-pyrrolo[2,3-b]pyridin-3-yl)phthalazin-1(2H)-one]
33 | 7700 nM | 85200 nM |  | Cn1cncc1-c1ccc2c(=O)[nH]nc(CN)c2c1 [Example 3-30, 4-(aminomethyl)-6-(1-methyl-1H-imidazol-5-yl)phthalazin-1(2H)-one]
34 | 80000 nM | > 100000 nM |  | NCc1n[nH]c(=O)c2ccc(-c3cnc[nH]3)cc12 [Example 3-31, 4-(aminomethyl)-6-(1H-imidazol-5-yl)phthalazin-1(2H)-one]
35 |  | 11600 nM | 710 nM | NCc1n[nH]c(=O)c2ccc(-c3cnn(CCO)c3)cc12 [Example 3-32, 4-(aminomethyl)-6-(1-(2-hydroxyethyl)-1H-pyrazol-4-yl)phthalazin-1(2H)-one]
36 | 61 nM | 1570 nM |  | NCc1n[nH]c(=O)c2ccc(-c3cncc(C4CC4)c3)cc12 [Example 3-33, 4-(aminomethyl)-6-(5-cyclopropylpyridin-3-yl)phthalazin-1(2H)-one]
37 | 73 nM | 2040 nM |  | CCCc1cncc(-c2ccc3c(=O)[nH]nc(CN)c3c2)c1 [Example 3-34, 4-(aminomethyl)-6-(5-propylpyridin-3-yl)phthalazin-1(2H)-one]
38 | 59 nM | 1530 nM |  | NCc1n[nH]c(=O)c2ccc(-c3cncc(CC4CC4)c3)cc12 [Example 3-35, 4-(aminomethyl)-6-(5-(cyclopropylmethyl)pyridin-3-yl)phthalazin-1(2H)-one]
39 | 450 nM | 9130 nM |  | NCc1n[nH]c(=O)c2ccc(-c3cncc(C(F)F)c3)cc12 [Example 3-36, 4-(aminomethyl)-6-(5-(difluoromethyl)pyridin-3-yl)phthalazin-1(2H)-one]
40 | 3200 nM | 72100 nM |  | N#Cc1cncc(-c2ccc3c(=O)[nH]nc(CN)c3c2)c1 [Example 3-37, 5-(4-(aminomethyl)-1-oxo-1,2-dihydrophthalazin-6-yl)nicotinonitrile]
41 |  | 4940 nM | 370 nM | N#Cc1cncc(-c2ccc3c(=O)[nH]nc(CN)c3c2)c1F [Example 3-38]
42 | 920 nM | 24300 nM |  | CC#Cc1cncc(-c2ccc3c(=O)[nH]nc(CN)c3c2)c1 [Example 3-39, 4-(aminomethyl)-6-(5-(prop-1-yn-1-yl)pyridin-3-yl)phthalazin-1(2H)-one]
43 | 1600 nM | 27500 nM |  | NCc1n[nH]c(=O)c2ccc(-c3cncc(F)c3)cc12 [Example 3-41, 4-(aminomethyl)-6-(5-fluoropyridin-3-yl)phthalazin-1(2H)-one]
44 | 200 nM | 3580 nM |  | NCc1n[nH]c(=O)c2ccc(-c3cncc(Cl)c3)cc12 [Example 3-42, 4-(aminomethyl)-6-(5-chloropyridin-3-yl)phthalazin-1(2H)-one]
